Laboratory results: patent US20060094783A1 (Tava Pharmaceutical Industries, Ltd., priority 1990, published 2006)
Where a name gives a salt, the structure may show the parent alone.

Experiments:
[1] = Appearance of PAI salts under destructive conditions; assay type: physicochemical
Protocol: Comparative stability studies were carried out under sets of several accelerating conditions: I) heating at 80° C. for 72, 96 or 144 hours; and II) reflux in isopropanol for 30 hours. The degradation products developed were measured by HPLC and confirmed by TLC. The results are presented in Table 9 with the relative retention time (relative to the PAI peak; RRT) as an area percentage relative to ? integrated peak area.
The salts were submitted to visual inspection of color an form.

[2] = Physicochemical properties of PAI salts; conditions: for pH: 1% aqueous solution of the PAI salt
Protocol: The melting range was measured with an automatic apparatus (Mettler FP 80) and thermo-gravimetric analysis was performed on a Mettler TA 3000 system at a rate of 10° C./min in the applicable range. […] The pH was measured in a 1% aqueous solution of the PAI salts.

[3] = test system: haloperidol-induced catalepsy in mice; experiment: Reversal of haloperidol-induced catalepsy in mice; assay type: in vivo, mouse; conditions: for Score + SE: haloperidol 6 mg/kg s.c., max score 12; for % of control: score vs saline control
Protocol: All drugs were administered i.p. in a volume of 0.2 mL. Two hours later, haloperidol was injected s.c. at a dose of 6 mg/kg in a volume of 0.1-0.2 mL. Motor coordination tests were made at 3 hours after giving haloperidol, that is, 5 hours after administering the presumed protective drugs.
Motor coordination tests and rigidity were quantified according to three different parameters: (a) ability to walk the length of a horizontal rod, 80 cm-long; (b) ability to climb down, face down, a vertical rod, 80 cm-long; (c) duration of immobility in an unnatural sitting posture whereby the abdomen of the mouse is pressed against a “wall.” Full performance as in haloperidol-untreated mice is given the score of 4 in each test, or a total of 12 in all tests. Poor performance is given a score from 1 to 3.

[4] = test system: α-MpT-induced hypokinesia in rats; experiment: Reversal of α-MpT-induced hypokinesia in rats; assay type: in vivo, rat; conditions: for Score + SE (total motor activity, 10 hours): α-MpT 100 mg/kg i.p.
Protocol: The drug α-MpT is assumed to inhibit the formation of L-DOPA from tyrosine, and consequently the formation of dopamine itself. Lack of CNS dopamine is expressed as hypoactivity. […] Two hours later they received i.p. α-MpT at a dose of 100 mg/kg in 0.3-0.5 mL. Controls received saline. Following this, motor activity was recorded in a computerized activity cage for the duration of 10 hours.

[5] = test system: maximal electroshock seizures in rats; experiment: Maximal electroshock test (MES test) in rats; assay type: in vivo, rat; conditions: p.o., 50 mg/kg
From the text: The MES test is a classical model to indicate efficacy for partial and generalized seizures in humans. The agents' mechanism of action is via their ability to prevent the spread of seizures. Some agents, however, that prevent seizure spread have the side effect of lowering seizure threshold. These agents therefore have both proconvulsive and anticonvulsive side effects.

guinea-pig ileum = experiment: Antagonism of bethanechol-induced (fixed dose) contractions of guinea-pig ileum; conditions: bethanechol 0.8 μM
[6] = test system: cardiovascular effects in animals; conditions: cited from earlier work
MAO-A = target: T1, MAO-A (Rattus norvegicus, UniProt P21396); experiment: Inhibition of MAO activity in vivo, acute treatment, MAO-A; conditions: rat
T1 construct: MAO activity determined in brain and liver; from tissue; host or cells: brain and liver of male Sprague-Dawley-derived rats
T1 sequence (P21396 1-526): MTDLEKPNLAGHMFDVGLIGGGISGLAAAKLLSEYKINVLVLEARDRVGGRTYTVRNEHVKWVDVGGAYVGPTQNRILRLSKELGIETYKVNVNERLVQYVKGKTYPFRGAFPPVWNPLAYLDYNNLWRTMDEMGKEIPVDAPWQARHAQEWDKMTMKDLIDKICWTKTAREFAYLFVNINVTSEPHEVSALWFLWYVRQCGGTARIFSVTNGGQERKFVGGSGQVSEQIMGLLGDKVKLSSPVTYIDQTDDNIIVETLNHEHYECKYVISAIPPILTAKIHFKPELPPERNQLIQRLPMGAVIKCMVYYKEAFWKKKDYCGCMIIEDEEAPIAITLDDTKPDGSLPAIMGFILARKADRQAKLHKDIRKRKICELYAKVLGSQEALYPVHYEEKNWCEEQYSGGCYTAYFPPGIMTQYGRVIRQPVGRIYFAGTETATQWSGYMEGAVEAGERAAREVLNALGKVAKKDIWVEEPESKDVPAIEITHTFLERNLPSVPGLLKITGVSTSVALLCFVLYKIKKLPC

MAO-B = target: T2, MAO-B (Rattus norvegicus, UniProt P19643); experiment: Inhibition of MAO activity in vivo, acute treatment, MAO-B; parameters: in a rat brain preparation of MAO; host or cells: rat brain preparation
T2 sequence (P19643 1-520): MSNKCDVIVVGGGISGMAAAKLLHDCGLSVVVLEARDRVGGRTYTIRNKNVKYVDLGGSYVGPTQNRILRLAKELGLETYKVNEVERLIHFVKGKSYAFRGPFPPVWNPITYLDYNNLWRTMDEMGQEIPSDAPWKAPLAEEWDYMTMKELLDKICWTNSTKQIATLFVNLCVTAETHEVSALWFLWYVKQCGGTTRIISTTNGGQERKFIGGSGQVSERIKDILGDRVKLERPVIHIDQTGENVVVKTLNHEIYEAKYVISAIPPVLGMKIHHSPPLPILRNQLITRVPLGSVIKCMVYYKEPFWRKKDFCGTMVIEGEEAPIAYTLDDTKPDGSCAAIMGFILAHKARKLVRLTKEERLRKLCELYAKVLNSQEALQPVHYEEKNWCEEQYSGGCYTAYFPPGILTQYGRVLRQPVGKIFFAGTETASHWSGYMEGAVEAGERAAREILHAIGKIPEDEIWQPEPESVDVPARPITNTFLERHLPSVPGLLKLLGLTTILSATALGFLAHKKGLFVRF

[7] = test system: neonatal rat cerebellum cell cultures; conditions: 0.01 μM + NMDA
Protocol: Procedures: cultures of mechanically dissociated neonatal rat cerebellum. […] The cerebella are then dissociated after 20-25 passages through a sterile 13 gauge, 10 cm long stainless steel needle attached to a 5 ml syringe with an inserted 45 μm pore size nylon sieve. The dissociated cells are centrifuged at 200 g for 5 minutes, the supernatant discarded and the cells resuspended in enriched medium. The cell viability is determined by the trypan blue exclusion test. […] After 4 days in culture, the media are replaced with media containing the desired test compounds. Experiments are done in duplicate and repeated 2 or 3 times. […] Nerve cell survival is evaluated by phase contrast microscopy and trypan blue staining after 24 h.
Values, expressed as the percent of untreated controls, represent the average of 2 experiments run in duplicate for culture experiments, and the mean±SEM of 4 animals for ischemia. The percent protection value is the effect of the test compound after subtraction of the solvent effect.

Molecule: maleate
- appearance: color ([1]; 80° C./72 h): brown
- appearance: form ([1]; 80° C./72 h): melted
- appearance: color ([1]; 80° C./96 h): brown
- appearance: color ([1]; reflux in iPrOH/30 h): brown
- appearance: form ([1]; reflux in iPrOH/30 h): melted

Molecule: C#CCN[C@@H]1CCc2ccccc21.CCS(=O)(=O)O [esylate]
- appearance: color ([1]; 80° C./72 h): brownish
- appearance: form ([1]; 80° C./72 h): melted
- appearance: color ([1]; 80° C./144 h): dark brown
- appearance: form ([1]; 80° C./144 h): melted
- appearance: color ([1]; reflux in iPrOH/30 h): dark brown
- appearance: form ([1]; reflux in iPrOH/30 h): melted
- pH [2]: 2.4

Molecule: C#CCNC1CCc2ccccc21 (racemic) [Rac PAI Mesylate]
- Score + SE ([3]; 3.0 mg/kg i.p. (free base)): 5.9 ± 0.7
- % of control ([3]; 3.0 mg/kg i.p.): 49%
- protection against haloperidol (in words) ([3]; 5 mg/kg): not active
- Score + SE ([3]; 5.0 mg/kg i.p. (free base)): 6.4 ± 0.4
- % of control ([3]; 5.0 mg/kg i.p.): 53%
- Score + SE ([3]; 10 mg/kg i.p. (free base)): 9.2 ± 0.6
- % of control ([3]; 10 mg/kg i.p.): 77%
- Score + SE ([3]; 15 mg/kg i.p. (free base)): 8.8 ± 0.8
- % of control ([3]; 15 mg/kg i.p.): 73%
- restoration of motor activity (in words) ([4]; 2 mg/kg): not active
- % of control ([4]; 2 mg/kg i.p., vs saline control): 57%
- Score + SE (total motor activity, 10 hours) ([4]; 2 mg/kg i.p.): 9,035 ± 829
- Score + SE (total motor activity, 10 hours) ([4]; 5 mg/kg i.p.): 10,926 ± 820
- Score + SE (total motor activity, 10 hours) ([4]; […] i.p.): 9,698 ± 557

Molecule: C#CCN[C@@H]1CCc2ccccc21.Cl [(R)-PAI HCl, R-(+)-N-Propargyl-1-aminoindan hydrochloride]
- animals protected from seizures [5]: three out of four
- Percent relaxation (guinea-pig ileum; PAI concentration 20 μM): 25
- Percent relaxation (guinea-pig ileum; PAI concentration 60 μM): 25-50
- Percent relaxation (guinea-pig ileum; PAI concentration 100 μM): 50-70
- Percent relaxation (guinea-pig ileum; PAI concentration 300 μM): 100

Molecule: C#CCNC1CCc2ccccc21.Cl (racemic) [racemic PAI.HCl, Racemic N-propargyl-1-aminoindan hydrochloride]
- potentiation of the cardiovascular effects of tyramine ([6]; Finberg et al.): does not potentiate

Molecule: C#CCNC1CCc2ccccc21 (racemic) [Rac, N-propargyl-1-aminoindan]
- IC-50 MAO-A (MAO-A; I.P., liver, 1 h after dose): 5 mg/kg
- IC-50 MAO-A (MAO-A; P.O., brain, 2 h after dose): >5 mg/kg
- IC-50 MAO-A (MAO-A; P.O., liver, 2 h after dose): >5 mg/kg
- blood pressure ([6]; comparative animal tests): does not increase blood pressure
- tachycardia ([6]; comparative animal tests): no significant tachycardia
- IC-50 MAO-B (MAO-B; I.P., brain, 1 h after dose): 0.22 mg/kg
- IC-50 MAO-B (MAO-B; I.P., liver, 1 h after dose): 0.11 mg/kg
- IC-50 MAO-B (MAO-B; P.O., liver, 2 h after dose): 0.09 mg/kg

Molecule: Cl [chloride]
- appearance: color ([1]; 80° C./72 h): white
- appearance: form ([1]; 80° C./72 h): powder
- appearance: color ([1]; 80° C./144 h): white
- appearance: form ([1]; 80° C./144 h): powder
- appearance: color ([1]; reflux in iPrOH/30 h): off white
- appearance: form ([1]; reflux in iPrOH/30 h): powder

Molecule: C#CCN[C@@H]1CCc2ccccc21.C#CCN[C@@H]1CCc2ccccc21.O=S(=O)(O)O [sulphate]
- appearance: color ([1]; 80° C./72 h): off white
- appearance: form ([1]; 80° C./72 h): powder
- appearance: color ([1]; 80° C./144 h): off white
- appearance: form ([1]; 80° C./144 h): powder
- appearance: color ([1]; reflux in iPrOH/30 h): brown
- appearance: form ([1]; reflux in iPrOH/30 h): powder
- pH [2]: 3.9
- % Wt. loss ([2]; thermo-gravimetric analysis, 10° C./min): 3.2%

Molecule: NCCCNCCCCNCCCN [Spermine, reference compound]
- Surviving Cells (percent of untreated controls) [7]: 75
- Percent Protection ([7]; after subtraction of solvent effect): 65

Molecule: phosphate
- appearance: color ([1]; 80° C./72 h): brownish
- appearance: form ([1]; 80° C./72 h): powder
- appearance: color ([1]; 80° C./144 h): brown
- appearance: form ([1]; 80° C./144 h): powder
- appearance: color ([1]; reflux in iPrOH/30 h): brown
- appearance: form ([1]; reflux in iPrOH/30 h): powder
- pH [2]: 7.0
